Assay [1] relates to myosin light chain phosphorylation enzyme (MLCK). As to the kind of experiment: Action on myosin light chain phosphorylation enzyme (MLCK) activity, ELISA (second Test Example 7). Type of assay: biochemical, chicken. The note with it: result in words. On the procedure:
A myosin light chain phosphorylation enzyme (MLCK) was purified from chicken gizzard smooth muscle by a conventional method (Yoshida, M., et al., J. Biochem., 99, 1027-1036 (1986)). The myosin regulatory light chain as a substrate was purified from the chicken gizzard smooth muscle by a conventional method (Grand, R. J., et al., Biochem. J., 211, 267-272 (1983)). The MLCK activity was measured by ELISA using pLC1 described in Test Example 1 (Sakurada, K., et al., J. Biochem., 115, 18-21 (1994)). […] In a volume of 100 µ1 each of 20% aqueous phosphoric acid solution was added to each well to terminate the enzymatic reaction. Each well was washed with 25 mM Tris/HCl buffer (TTBS) containing 0.1% Tween 20, and then 100 µl each of pLC1 described in Test Example 1 was added to each well and incubated at room temperature for 90 minutes. Each well was washed with TTBS, and then 100 µl of the HRP-labeled rabbit anti-mouse IgG antibodies (Bio-Rad) were added to each well and incubated at room temperature for 90 minutes. […] 50 µl of 4 N sulfuric acid was added to each well to terminate the reaction, and then absorbance was measured by using an immunoplate reader (Bio-Rad).
(In general: An ELISA detects its analyte on a solid surface through an enzyme-linked reagent.)

For a further assay, the system named is Neutrophils. Kind of assay: Neutrophil migration inhibitory action, Boyden Chamber, FMLP (Test Example 5). Type of assay: cell-based, human. The note with it: Homo sapiens, Neutrophil, 0.5 h, FMLP (1 µM), migration at 37°C for 30 minutes; read-out: Neutrophil migration inhibition IC50. An outline of the steps:
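Neutrophils from healthy donors' peripheral blood (8 x 10^6/ml) were preincubated 5 min at room temperature with compound. Migrated cells were stained and absorbance read at 595 nm; inhibition (%) was calculated against compound-free wells.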

The subject of a further assay is Japanese white rabbit. As to the kind of experiment: Intraocular pressure reducing action (Test Example 4). Type of assay: in vivo. Conditions: Oryctolagus cuniculus, topical; 50 µl of test compound (1% aqueous solution) dropped to the left eye, after 2 hours; read-out: Intraocular pressure reducing action (reduction ratio) (%). On the procedure: A Japanese white rabbit having a body weight of about 2 kg was placed in a positioner and naturalized for one week before the experiment. An ophthalmologic local […] (Benoxil) was administered to the left eye, and then intraocular pressure was measured by using a tonometer (Classic 30, Solan). The initial value of the intraocular pressure was measured, then 50 μl of a test compound (1% aqueous solution) was dropped to the left eye, and after 2 hours, the intraocular pressure was measured. The intraocular pressure reducing action of the test compounds is shown in Table 7 mentioned below as ratios (%) of reduction of intraocular pressure based on the initial value of the intraocular pressure.

In assay [2] the test system is myosin regulatory light chain. As to the kind of experiment: Action on amount of phosphorylated myosin regulatory light chain in the cells (Test Example 1). Type of assay: cell-based, human. Conditions: neutrophils of healthy volunteers, reaction with test compound at 25°C for 5 minutes, read-out: Inhibition of myosin regulatory light chain phosphorylation (IC50: µM). In short, it runs like this:
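Neutrophil suspension (5 x 10^6/ml, HBSS) reacted 5 min at 25 °C with test compound at various concentrations. TCA-stopped, urea-extracted and run on SDS-PAGE, then immunoblotted with antibody specific for phosphorylated myosin regulatory light chain, detected by HRP/ECL and quantified by densitometry. Result given as % inhibition of phosphorylation.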

Assay [3] deals with ovalbumin-immunized guinea pigs. Kind of assay: Respiratory tract constriction suppression action, ovalbumin-induced (Test Example 3). Type of assay: in vivo, Hartley guinea pigs. The note with it: result in words; test medicament given into hind leg vein after induction with 0.3 mg/kg ovalbumin, measured for 15 minutes. The protocol: Four-week old Hartley guinea pigs (male) were immunized by intraperitoneal administration of ovalbumin (Sigma, Grade V) in amounts of 1 mg for each animal on the day on which the experiment was started, 3 mg for each animal after 2 days, and 10 mg for each animal after 4 days. Twelve to fourteen days after the final immunization, the ovalbumin-immunized guinea pigs were anesthetized by intraperitoneal administration of about 40 mg/kg of pentobarbital (Somnopentyl), and the tracheas were taken out. Subsequently, a cannula (SP-110, Natsume) was inserted into each trachea, and one end of the cannula was connected to an artificial respirator (Model-b83, Harvard). The aeration conditions were set at 6 ml per kilogram and 60 times per 1 minute. Further, a cannula for medicament administration (JMS wing needle 23G 3/4) was inserted into a hind leg vein. Myoblock (Organon Technica) was administered in an amount of 0.5 mg/kg from the cannula inserted into the hind leg vein to stop the spontaneous breathing, and after 2 or 3 minutes, 0.3 mg/kg of ovalbumin was administered to induce constriction of respiratory tract. The increase of airway resistance value 2 minutes after the induction (measurement apparatuses: pressure transducer TR-603T, respiratory amplifier AR-601G, and recorder RTA-3100, Nihon Kohden Corp.) was confirmed to be above 80 cm H2O or higher, and then, a solution of a test medicament was administered from the cannula inserted into the hind leg vein, and the airway resistance value was continuously measured for 15 minutes after the administration to determine the effect.

In the next assay the test system is BALB/c female mice. As to the kind of experiment: Respiratory tract inflammation suppressing action, OVA-induced (Test Example 6). The note with it: orally 30 mg/kg once a day for 5 days; inhalation of 2% OVA; alveoli washed after 24 hours. It is filed as in vivo. On the procedure: According to the method described in Henderson, W.R., et al., Am. J. Respir. Cric. Care Med., 165(1), 108-116 (2002), suppressing action on bronchial inflammation was confirmed. BALB/c female mice (7-week old) were used for the test, each group consisting of 7 mice, and the control group consisting of 11 or 12 mice. The mice were intraperitoneally administered with ovalbumin (OVA, 100 ng, Sigma) and 1 mg of aluminum hydroxide for initial immunization, and after 2 weeks, they are subcutaneously administered with 10 ng of OVA as additional immunization. After further 1 week, a test compound was dissolved in water containing 0.5% carboxymethylcellulose and orally administered (30 mg/kg) to the test animals once a day for 5 days. The control group was similarly given only with water containing 0.5% carboxymethylcellulose. After 1 hour, the mice were orally inhaled with 2% OVA for 10 minutes to induce a respiratory tract inflammation. Further, the control group, in which the mice were not given with the test compound, was divided into a positive control group (n = 7), in which the mice were inhaled with 2% OVA to induce the reaction, and a negative control group (n = 4 or 5), in which the mice were similarly inhaled with physiological saline. After 24 hours, alveoli in the lungs of the test animals were washed with physiological saline, and the total infiltrated white blood cells (WBC) were counted.

A further assay has as its system thoracic aorta. As to the kind of experiment: Vasoconstriction inhibitory action on aorta rings constricted with phenylephrine (Test Example 2). Conditions: aorta constricted with phenylephrine (1 µM); for inhibition at 1 µM: Rattus norvegicus, test compound 1 µM, read-out: Vasoconstriction inhibitory action (relaxation ratio) (%). Also noted: species or system Rats (Wistar, 11-week old). The source says: Rats (Wistar, 11-week old) were bleeded to death and laparotomized to take out the thoracic aorta.

The test system of assay [4] is human neutrophil fraction. As to the kind of experiment: Action on increase of intracellular calcium concentration, Fura2-AM, fMLP (Test Example 7). Conditions: test compound 1 µM added 3 minutes before fMLP (1 µM), R = F340/F380, without test compound = 100%, read-out: Maximum R value (%). Type of assay: cell-based. On the procedure:
According to the method described in Test Example 1, a neutrophil containing fraction was prepared. Fura2-AM (Sigma) at a final concentration of 3 µM was added to the human neutrophil fraction and the mixture was incubated at 37°C for 1 hour. After centrifugation (250 g for 5 minutes), the supernatant was discarded, and the neutrophils were resuspended in Hanks' Balanced Salt Solution (HBSS, Gibco) to prepare a cell suspension (8 x 10^6/ml) for measurement of intracellular calcium concentration. The cell suspension for measurement of intracellular calcium concentration was left stand at room temperature for 30 minutes. Then, 490 µl of the cell suspension for measurement of intracellular calcium concentration was placed in a cuvette, 10 µl of calcium chloride solution at a final concentration of […] was added to it and the cuvette was set in an intracellular calcium concentration analyzer (CAF110, Nippon Bunko). fMLP (Sigma) solution at a final concentration of 1 µM was added to the cell suspension, and F340 and F380, which are fluorescence intensity at 340 nm and 380 nm, respectively, were measured to obtain an R value (F340/F380) as an index of the intracellular calcium concentration. A test compound (1 µM) was added 3 minutes before the addition of fMLP, and the action on the intracellular calcium concentration was observed. The ratios of the maximum R value obtained with addition of each test compound, based on the maximum R value obtained without addition of test compound and taken as 100%, are shown in Table 10 mentioned below.
A general note: Calcium assays in cells follow changes in intracellular calcium, usually with a dye or a luminescent sensor.

The mark [5] stands for this setting: Homo sapiens, Neutrophil, 5 min.

Where a name gives a salt, the structure may show the parent alone. Read-outs that look alike come from different tables or passages of the source.

Regarding `c1cc(NC2CCCNC2)c2ccncc2c1` (racemic) [Example 29, 3-N-(5-Isoquinolyl)aminopiperidine hydrochloride], the “inhibition of MLCK” value in assay [1] is “did not inhibit MLCK”. In addition, the IC50 in the assay on Neutrophils is at most 40 µM; in assay [2] (setting [5]), at most 40 µM; in assay [2] (hydrochloride) it was at most 20 µM. In the assay with Japanese white rabbit, the inhibition in vivo at 1 % is 18.8%. Moreover, in assay [3], the “constriction of respiratory tract (airway resistance value)” value is “significantly improved the constriction of respiratory tract”.
As to `Cl.NCCCN(CCCc1ccccc1)S(=O)(=O)c1cccc2cnccc12` [Example 1, N-[(5-Isoquinolyl)sulfonyl]-N-(3-phenylpropyl)-1,3-propylenediamine hydrochloride], the IC50 in the assay on Neutrophils was at most 1 µM; in assay [2] (setting [5]), 0.8 µM. For the same compound, the “Total WBC count x 10E5/ml/mouse” value in the assay with BALB/c female mice stood at 300 x 10E5/ml/mouse. Further, in the assay with thoracic aorta, the inhibition at 1 µM stood at 73.8%. Besides, the activity at 1 µM in assay [4] is 98%.
For `Cl.NCCCN(CCc1cccs1)S(=O)(=O)c1cccc2cnccc12` [Example 2, N-[(5-Isoquinolyl)sulfonyl]-N-[2-(2-thienyl)ethyl]-1,3-propylenediamine hydrochloride], the IC50 in the assay with Neutrophils was 1 to 10 µM; in assay [2] (setting [5]), 0.8 µM. In the assay with BALB/c female mice, the “Total WBC count x 10E5/ml/mouse” value is reported as 200 x 10E5/ml/mouse. Moreover, the vasoconstriction inhibitory action result in the assay on thoracic aorta (result in words) was “significant vasoconstriction inhibitory action”. Also, the “constriction of respiratory tract (airway resistance value)” value in assay [3] was “significantly improved the constriction of respiratory tract”. In assay [4], the activity at 1 µM was found to be 99%.
Turning to `Cl.NCCN(CCS(=O)(=O)c1ccccc1)S(=O)(=O)c1cccc2cnccc12` [Example 7, N-[(5-Isoquinolyl)sulfonyl]-N-[2-(phenylsulfonyl)ethyl]ethylenediamine hydrochloride], in the assay on BALB/c female mice, the “Total WBC count x 10E5/ml/mouse” value came to 400 x 10E5/ml/mouse. Also, the inhibition at 1 µM in the assay with thoracic aorta came to 64.3%. Also, the IC50 in assay [2] (setting [5]) was 30 µM. In addition, the activity at 1 µM in assay [4] is 101%.
`Cl.NCCCOc1cccc2c(N)nccc12` [Example 10, 3-[(1-Amino-5-isoquinolyl)oxy]propylamine hydrochloride]: the IC50 in the assay with Neutrophils was 1 to 10 µM; in assay [2] (setting [5]), 10 µM. Also, the “Total WBC count x 10E5/ml/mouse” value in the assay on BALB/c female mice is 150 x 10E5/ml/mouse. In addition, the activity at 1 µM in assay [4] turned out to be 99%.

(Values after patent EP1541559A1, “5-SUBSTITUTED ISOQUINOLINE DERIVATIVE” (Asahi Kasei Pharma Corporation, priority 2002, dated 2004).)
